Patent US10125104B2, “Carotenoid derivative, pharmaceutically acceptable salt thereof, or pharmaceutically acceptable ester or amide thereof” (Asta Pharmaceuticals Co., Ltd., priority 2014, dated 2018)

Columns and labels:
TNF-α = experiment: Test for anti-inflammation in rats (LPS intraperitoneally): blood plasma TNF-α by ELISA; type: in vivo, Wistar rats; conditions: for TNF-α concentration in blood plasma: 4 mg/kg LPS i.p., then sample i.p., blood after 9 hours
Experimental: (§1) Test for Anti-Inflammation in Rats
(§2) Six week-old Wistar rats (purchased from Sankyo Labo Service Corporation, 200-250 g body weight) were acclimatized for 1 week with free access to food under a 12/12-hr light-dark cycle. An aqueous solution of 4 mg/kg LPS (lipopolysaccharide, derived from Escherichia coli and manufactured by Wako Pure Chemical Industries, Ltd.) was injected intraperitoneally and then an aqueous solution of the sample was injected intraperitoneally. After 9 hours, the whole blood was collected from the ventral aorta and centrifuged for 10 minutes at 10,000 rpm, and the blood plasma was collected. The blood plasma TNF-α concentration was measured using a kit for measuring TNF-α (Rat TNF-alpha Quantikine ELISA Kit RTA00, manufactured by R&D Systems Inc.) and the blood plasma IL-1β concentration was measured using a kit for measuring IL-1β (Rat IL-1b/IL1F2 Quantikine ELISA Kit, manufactured by R&D Systems Inc.). The 3 to 4 animals per group were used. The blood plasma TNF-α concentration is shown in Table 46 and FIG. 3 and the blood plasma IL-1β concentration is shown in Table 46 and FIG. 4.

[1] = system: IL-1β mRNA in RAW264.7 cells; experiment: Test for anti-inflammation in a cell: IL-1β mRNA by quantitative RT-PCR after LPS; type: cell-based, mouse; conditions: for suppression of IL-1β gene expression (in words): RAW264.7 cells, LPS; for IL-1β Gene expressivity: relative to the control, LPS 1 ng/mL, 2 hours
Experimental: Test for Anti-Inflammation in a Cell
These cells were cultured for 48 hours in 5% CO2 at 37° C. After the medium replacement, an aqueous solution of the sample was added to the medium and the cell was cultured for 24 hours. The medium was then replaced, LPS (1 ng/mL) was added thereto and the cell was cultured for 2 hours.
Then, the medium was removed and the RAW264.7 cells were washed with physiological phosphate buffer solution (PBS). This operation was performed 3 times. Then, Total RNA was extracted using RNeasy Mini Kit (QIAGEN Inc.), and the production amount of IL-1β mRNA which is an inflammatory cytokine, was measured by a quantitative RT-PCR method using PRISM 7000 (Applied Biosystem).

IL-1β = experiment: Test for anti-inflammation in rats (LPS intraperitoneally): blood plasma IL-1β by ELISA; type: in vivo, Wistar rats; conditions: for IL-1β concentration in blood plasma: 4 mg/kg LPS i.p., then sample i.p., blood after 9 hours
Experimental: as §1, §2

[2] = digestive absorption; cited from earlier work
[3] = Test for confirmation of water solubility (distribution to water/methylene chloride); type: physicochemical
Experimental: Test for Confirmation of Water Solubility (Distribution to Water/Methylene Chloride)
To each of the samples (1 mg) in Table 43, water (5 mL) and methylene chloride (5 mL) were added and the mixture was shaken, which was called the group of Solution A. A 28% sodium methoxide/methanol solution (463 μL (2.33 mmol)) was dissolved in water (10 mL), and the aqueous solution (1 mL) was collected and dissolved in water (100 mL), which was called Solution B. To each of the group of Solution A, Solution B (1 mL) was added and shaken. The solution was left at room temperature, each of the aqueous layer and of the organic layer were measured by HPLC and the ratio of the compound in the aqueous layer was shown in Table 4.
HPLC conditions were as follows:
chromatograph (HITACHI LaChrom Elite D-2000), column (SHISEIDO CAPCELL PAK C18 (3 μm particle diameter, 4.6 mm×150 mm)), detection temperature (40° C.), detection wavelength (474 nm), flow rate (1.0 mL/min) and mobile phase set up (% A=0.025% TFA/water, % B=0.025% TFA/acetonitrile); 70% A/30% B (at the start), 50% B gradient until 2.5 minutes, 98% B gradient until 4.2 minutes and the ratio (98% B) maintained until 15 minutes. The ratio in the aqueous layer was calculated from the following equation. […]

[4] = Test for oral absorption: blood plasma concentration of astaxanthin after oral gavage; type: in vivo, Wistar rat; conditions: compared to astaxanthin (free form) and the extract from Haematococcus algae
Experimental: Test for Oral Absorption in […]
Each of the compound in Example 8, astaxanthin (free form) and an extract from Haematococcus algae (AstaReal L10, manufactured by Fuji Chemical Industries Co., Ltd., oil containing 10% astaxanthin extracted from Haematococcus algae) was diluted with 33% dimethyl sulfoxide, 60% polyethylene glycol and 0.03% aqueous carboxymethyl cellulose solution and prepared to have a concentration of 5 mg/ml as a conversion to astaxanthin free form. The prepared sample was administered to a Wistar rat fasted one night (male, 9 to 13 weeks old, 250 to 300 g of body weight, 2 or 4 animals per group) by oral gavage in an amount of astaxanthin (50 mg) per 1 kg of body weight. Then, the blood was collected at the time points of 3 hours, 6 hours and 24 hours and the blood plasma was isolated. To the obtained blood plasma (0.1 ml), acetone in an amount of 6 folds and hexane in an amount of 50 folds were added, and the solution was stirred well and centrifuged to obtain a hexane layer. The hexane layer was dried under reduced pressure and dissolved in acetone (0.1 ml). The obtained acetone solution (0.05 mL) was analyzed by high performance liquid chromatography (HPLC) under the following conditions and the blood concentration was measured. […]

[5] = compared to astaxanthin and disodium disuccinate astaxanthin

| Structure (SMILES) | TNF-α concentration in blood plasma (TNF-α) [pg/mL] | suppression of IL-1β gene expression (in words) [1] | IL-1β Gene expressivity ([1]; sample concentration 5 μM) | IL-1β concentration in blood plasma (IL-1β) [pg/mL] | IL-1β Gene expressivity ([1]; sample concentration 25 μM) | IL-1β Gene expressivity ([1]; sample concentration 50 μM) | other results |
| --- | --- | --- | --- | --- | --- | --- | --- |
| CC(C=CC=C(C)C=CC1=C(C)C(=O)C(OC(=O)CNC(=O)NCCCC(=O)O)CC1(C)C)=CC=CC=C(C)C=CC=C(C)C=CC1=C(C)C(=O)C(OC(=O)CNC(=O)NCCCC(=O)O)CC1(C)C.NCCCC[C@H](N)C(=O)O.NCCCC[C@H](N)C(=O)O (stereo not drawn) [Example (23), 4-(3-{4-[18-(4-[3-(3-carboxypropyl)ureidoacetoxy]-2,6,6-trimethyl-3-oxocyclohexa-1-enyl)-3,7,12,16-tetramethyloctadeca-1,3,5,7,9,11,13,15,17-nonaenyl]-3,5,5-trimethyl-2-oxocyclohexa-3-enyloxycarbonylmethyl}-ureido)butyric acid dilysine salt] | 81.8 ± 83.5 | suppressed IL-1β gene expression superiorly to astaxanthin | 0.88 | 146.3 ± 98.0 |  |  | suppression of generation of TNF-α (in words) (TNF-α; [5]): suppressed generation of TNF-α and of IL-1β more effectively; suppression of generation of IL-1β (in words) (IL-1β; [5]): suppressed generation of TNF-α and of IL-1β more effectively |
| CC(C=CC=C(C)C=CC1=C(C)C(=O)C(O)CC1(C)C)=CC=CC=C(C)C=CC=C(C)C=CC1=C(C)C(=O)C(O)CC1(C)C (stereo not drawn) [Astaxanthin, 6-hydroxy-3-(18-[4-hydroxy-2,6,6-trimethyl-3-oxo-1-cyclohexenyl]-3,7,12,16-tetramethyloctadeca-1,3,5,7,9,11,13,15,17-nonaenyl)-2,4,4-trimethyl-2-cyclohexen-1-one, reference compound] | 112.0 ± 35.6 |  | 1.00 | 203.9 ± 165.3 | 0.96 | 0.77 | biological availability [2]: around several percent; water solubility (in words) [3]: extremely low solubility in water |
| CC(C=CC=C(C)C=CC1=C(C)C(=O)C(OC(=O)CNC(=O)NCCCC(=O)O)CC1(C)C)=CC=CC=C(C)C=CC=C(C)C=CC1=C(C)C(=O)C(OC(=O)CNC(=O)NCCCC(=O)O)CC1(C)C (stereo not drawn) [Example (8), 4-(3-{4-[18-(4-[3-(3-carboxylpropyl)ureidoacetoxy]-2,6,6-trimethyl-3-oxocyclohexa-1-enyl)-3,7,12,16-tetramethyloctadeca-1,3,5,7,9,11,13,15,17-nonaenyl]-3,5,5-trimethyl-2-oxocyclohexa-3-enyloxycarbonylmethyl}-ureido)butyric acid] |  |  |  |  |  |  | oral absorbability (in words) [4]: higher oral absorbability |
| CC(C=CC=C(C)C=CC1=C(C)C(=O)C(OC(=O)CNC(=O)NCCCC(=O)[O-])CC1(C)C)=CC=CC=C(C)C=CC=C(C)C=CC1=C(C)C(=O)C(OC(=O)CNC(=O)NCCCC(=O)[O-])CC1(C)C.[Na+].[Na+] (stereo not drawn) [Example (22), 4-(3-{4-[18-(4-[3-(3-carboxypropyl)ureidoacetoxy]-2,6,6-trimethyl-3-oxocyclohexa-1-enyl)-3,7,12,16-tetramethyloctadeca-1,3,5,7,9,11,13,15,17-nonaenyl]-3,5,5-trimethyl-2-oxocyclohexa-3-enyloxycarbonylmethyl}-ureido)butyric acid disodium salt] |  | suppressed IL-1β gene expression superiorly to astaxanthin | 0.92 |  | 0.66 | 0.31 |  |
| CC(C=CC=C(C)C=CC1=C(C)C(=O)C(OC(=O)CCC(=O)O)CC1(C)C)=CC=CC=C(C)C=CC=C(C)C=CC1=C(C)C(=O)C(OC(=O)CCC(=O)O)CC1(C)C (stereo not drawn) [Astaxanthin disuccinate ester, astaxanthin disuccinic acid ester] |  |  |  |  |  |  | Ratio of aqueous layer ([3]; 1 mg sample in water 5 mL / methylene chloride 5 mL plus dilute sodium methoxide solution, HPLC peak areas, 474 nm): 43.8% |
| CC1=C(/C=C/C(C)=C/C=C/C(C)=C/C=C/C=C(C)/C=C/C=C(C)/C=C/C2=C(C)C(=O)C(OC(=O)CCC(=O)O)CC2(C)C)C(C)(C)CC(OC(=O)CCC(=O)O)C1=O (stereo not drawn) [Disodium Disuccinate Astaxanthin (DDA), Disodium Disuccinate Astaxanthin, reference compound] | 99.6 ± 99.9 |  |  | 311.7 ± 269.1 |  |  |  |
